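In this assay, cells in 96-well plates receive the compound at five concentrations for 48 hours. Endpoints are linearly interpolated between the surrounding concentrations. GI50 is the concentration that inhibits growth by half. Definition used: TGI = concentration required for complete inhibition of growth.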
How the values were obtained:
Assay in all cases: DTP human tumour cell line panel, 48 h
[1] = test system: M14 melanoma
[2] = test system: IGROV1 ovarian
[3] = test system: NCI/ADR-RES ovarian
[4] = test system: KM12 colon
[5] = test system: 786-0 renal
[6] = test system: SK-MEL-28 melanoma
[7] = test system: UACC-257 melanoma
[8] = test system: OVCAR-4 ovarian
[9] = test system: SF-539 CNS
[10] = test system: OVCAR-5 ovarian
[11] = test system: HCT-116 colon
[12] = test system: MCF7 breast
[13] = test system: OVCAR-8 ovarian
[14] = test system: HOP-62 NSCLC
[15] = test system: U251 CNS
[16] = test system: HT29 colon
[17] = test system: SK-MEL-2 melanoma
[18] = test system: MDA-MB-435
[19] = test system: SNB-75 CNS
[20] = test system: SNB-19 CNS
[21] = test system: HL-60(TB) leukemia
[22] = test system: A498 renal
[23] = test system: SF-295 CNS
[24] = test system: BT-549 breast
[25] = test system: HS 578T breast
[26] = test system: CCRF-CEM leukemia
[27] = test system: K-562 leukemia
[28] = test system: NCI-H226 lung
[29] = test system: EKVX NSCLC
[30] = test system: LOX IMVI melanoma
[31] = test system: SK-MEL-5 melanoma
[32] = test system: UO-31 renal
[33] = test system: RXF 393 renal
[34] = test system: HCT-15 colon
[35] = test system: A549 NSCLC
[36] = test system: CAKI-1 renal
[37] = test system: T-47D breast
[38] = test system: COLO 205 colon
[39] = test system: MDA-MB-231 breast
[40] = test system: PC-3 prostate
[41] = test system: MALME-3M melanoma
[42] = test system: OVCAR-3 ovarian
[43] = test system: NCI-H23 lung
[44] = test system: UACC-62 melanoma
[45] = test system: SF-268 CNS
[46] = test system: MDA-MB-468 breast
[47] = test system: ACHN renal
[48] = test system: SW-620 colon
[49] = test system: HCC-2998 colon
[50] = test system: NCI-H460 lung
[51] = test system: HOP-92 NSCLC
[52] = test system: SK-OV-3 ovarian
[53] = test system: TK-10 renal
[54] = test system: SN12C renal
[55] = test system: MOLT-4 leukemia
[56] = test system: RPMI-8226 leukemia
[57] = test system: DU-145 prostate
[58] = test system: NCI-H522 lung

`O=C(N=Nc1c(O)[nH]c2ccc(Br)cc12)c1ccc2nc(-c3ccccc3)[nH]c2c1` gave a GI50 [1] of 1.95 µM, a TGI [1] of 4.14 µM and a GI50 [2] of 3.03 µM. It also gave a TGI [2] of 13.2 µM, a GI50 [3] greater than 100 µM and a TGI [3] greater than 100 µM. For the same molecule, the GI50 [4] was 22 µM, the TGI [4] was greater than 100 µM and the GI50 [5] was 2.01 µM. For the same molecule, the TGI [5] was 3.91 µM, the GI50 [6] was 1.79 µM and the TGI [6] was 3.42 µM. The GI50 [7] was 3.27 µM, the TGI [7] was 21.7 µM and the GI50 [8] was 1.99 µM. The TGI [8] was 4.26 µM, the GI50 [9] was 1.77 µM and the TGI [9] was 3.43 µM. The GI50 [10] was 3.72 µM, the TGI [10] was 27.1 µM and the GI50 [11] was 3.24 µM. The TGI [11] was 12.8 µM, the GI50 [12] was 1.7 µM and the TGI [12] was 5.09 µM. It also gave a GI50 [13] of 1.53 µM, a TGI [13] of 3.76 µM and a GI50 [14] of 1.69 µM. For the same molecule, the TGI [14] was 3.36 µM, the GI50 [15] was 0.418 µM and the TGI [15] was 1.59 µM. It also gave a GI50 [16] of 2.66 µM, a TGI [16] of 8.75 µM and a GI50 [17] of 2.17 µM. For the same molecule, the TGI [17] was 4.78 µM, the GI50 [18] was 2.32 µM and the TGI [18] was 4.93 µM. The GI50 [19] was 2.11 µM, the TGI [19] was 5.62 µM and the GI50 [20] was 1.79 µM. It also gave a TGI [20] of 4.35 µM, a GI50 [21] of 2.54 µM and a TGI [21] of 6.73 µM. It also gave a GI50 [22] of 3.55 µM, a TGI [22] of 17.9 µM and a GI50 [23] of 1.86 µM. It also gave a TGI [23] of 3.78 µM, a GI50 [24] of 3.55 µM and a TGI [24] of 26.5 µM. It also gave a GI50 [25] of 1.86 µM, a TGI [25] of 4.83 µM and a GI50 [26] of 3.18 µM. It also gave a TGI [26] greater than 100 µM, a GI50 [27] of 1.29 µM and a TGI [27] of 6.99 µM. The GI50 [28] was 2.03 µM, the TGI [28] was 5.43 µM and the GI50 [29] was 3 µM. The TGI [29] was 11.2 µM, the GI50 [30] was 1.23 µM and the TGI [30] was 2.51 µM. For the same molecule, the GI50 [31] was 3.38 µM, the TGI [31] was 12.1 µM and the GI50 [32] was greater than 100 µM. The TGI [32] was greater than 100 µM, the GI50 [33] was 2.57 µM and the TGI [33] was 6.6 µM. It also gave a GI50 [34] of 18.6 µM, a TGI [34] greater than 100 µM and a GI50 [35] of 2.22 µM. For the same molecule, the TGI [35] was 7.41 µM, the GI50 [36] was greater than 100 µM and the TGI [36] was greater than 100 µM. The GI50 [37] was 1.07 µM, the TGI [37] was 2.52 µM and the GI50 [38] was 2.53 µM. It also gave a TGI [38] of 6.95 µM, a GI50 [39] of 1.69 µM and a TGI [39] of 3.18 µM. It also gave a GI50 [40] of 2.92 µM, a TGI [40] greater than 100 µM and a GI50 [41] of 1.62 µM. It also gave a TGI [41] of 3.35 µM, a GI50 [42] of 2.14 µM and a TGI [42] of 4.26 µM. It also gave a GI50 [43] of 1.53 µM, a TGI [43] of 3.65 µM and a GI50 [44] of 1.75 µM. The TGI [44] was 3.37 µM, the GI50 [45] was 2 µM and the TGI [45] was 4.6 µM. It also gave a GI50 [46] of 1.61 µM, a TGI [46] of 3.06 µM and a GI50 [47] of 8.96 µM. For the same molecule, the TGI [47] was greater than 100 µM, the GI50 [48] was 1.82 µM and the TGI [48] was 3.61 µM. It also gave a GI50 [49] of 1.48 µM, a TGI [49] of 3.11 µM and a GI50 [50] of 1.79 µM. The TGI [50] was 3.53 µM, the GI50 [51] was 2.17 µM and the TGI [51] was 6.63 µM. For the same molecule, the GI50 [52] was 1.97 µM, the TGI [52] was 4.29 µM and the GI50 [53] was 3.61 µM. It also gave a TGI [53] of 70.1 µM, a GI50 [54] of 1.86 µM and a TGI [54] of 4.11 µM. For the same molecule, the GI50 [55] was 1.34 µM, the TGI [55] was 4.01 µM and the GI50 [56] was 17.2 µM. The TGI [56] was greater than 100 µM, the GI50 [57] was 1.95 µM and the TGI [57] was 4.06 µM. The GI50 [58] was 1.38 µM and the TGI [58] was 3.1 µM.
